Laboratory results taken from patent US10995186B2, “Light-activated preparation of hydrogels” (Otago Innovation Limited, priority 2015, dated 2021).
Read-outs that look alike come from different tables or passages of the source. Blank lines part the entries; values can stand above or below the molecule they belong to.

Legend:
[1] = test system: co-culture (75% SKOV3 and 25% HFF) cells
[2] = test system: co-culture (75% SKOV3 and 25% HFF) cells; test: cells; details: Homo sapiens, 96 h
[3] = test system: human ovarian adenocarcinoma cell lines (SKOV3)
Experimental: (§1) Experiments were carried out with human ovarian adenocarcinoma cell lines (SKOV3) and normal human foreskin fibroblasts (HFF). […] Cells were expanded at 37° C. in a humidified 5% CO2/95% air incubator and media was changed twice a week.
(§2) Each cell encapsulated microspheres was then transferred to well in a 96-well polystyrene plate (Falcon). 150 μL of cell culture media was then pipetted into the wells and placed in the incubator and the media was changed twice a week.

[4] = test system: human ovarian adenocarcinoma cell lines (SKOV3); test: cells; details: SK-OV-3, 96 h
Experimental: as §1, §2

[5] = test system: assembled cancer construct; test: Darkfield images of doxorubicin-treated cancer construct; type: cell-based, human
From the text: To print the assembled construct (n=3) a layer-by-layer approach was opted so as to not limit the height of the scaffold that can be constructed using the system. In this scheme the first layer of the scaffold (8 layers of fibre strands) was printed (as described earlier) and then 4 (2×2 fashion) live microspheres were inserted into the pores of the 3D plotted scaffold. This process was repeated to generate a second layer of the scaffold (4 layers of fibre strands) and then 4 more microspheres were inserted into the scaffold. But for the manually assembled scaffold, the whole scaffold was printed at once and the micro-tissues were inserted manually into pre-printed scaffolds in a similar format to the ones assembled with the automated system.
The cytotoxicity test was used to evaluate in vitro antitumor activity of Doxorubicin on cells in 2D, microspheres and assembled cancer construct. […] On day 1 of forming the microspheres, SKOV3, HFF and co-culture cancer constructs were manually assembled and transferred to a 24-well plate with 1.2 ml of media per well. On day 7, for the cytotoxicity test on 2D model, SKOV3s, HFFs and co-culture (75% SKOV3 and 25% HFF) cells were seeded onto a 48-well plate at 30,000 cells and 200 μl of media per well. […] Media with 5% FBS containing the specific concentration of drug was changed every 2 days. […]

[6] = test system: normal human foreskin fibroblasts (HFF); details: Fibroblast
[7] = test system: normal human foreskin fibroblasts (HFF); test: cells; details: Fibroblast, 96 h
[8] = test system: Breast adenocarcinoma cells (MCF-7)
Experimental: A live/dead assay was performed after 1 day to evaluate the viability of encapsulated MCF-7 cells.

[9] = Deformation of thickness (oxygen inhibition) of Gel-MA/collagen hydrogel; type: physicochemical; details: Gel-MA+Collagen 1 discs
Experimental: The constructs were then irradiated for 15 minutes in the presences of a photo-initiator and a light source, where the surfaces of the constructs were exposed to oxygen. In a first experiment, the light intensity was kept at 3 mW/cm^2 whereas the photo-initiator concentrations were varied from 0.05 to 0.5 wt % and 0.2/2 mM to 2/20 mM for 12959 and Ru/SPS respectively. In a second experiment the light intensity was varied from 3 to 100 mW/cm^2 while keeping the photo-initiator concentrations constant at 0.05 wt % and 0.2/2 mM for 12959 and Ru/SPS respectively. The level of oxygen inhibition was characterised as the deformation of thickness before (to) and after equilibrium swelling (ts). The deformation of thickness is given by the equation: Deformation of thickness=[(t0−ts)/t0]×100.

[10] = test system: human articular chondrocytes (HAC); test: GAG assay of HAC encapsulated in Gel-MA hydrogels; type: cell-based; details: at 21 days
Experimental: Cell-laden Gel-MA samples were digested overnight in 200 μL of 1 mg/ml proteinase-K solution at 56° C. In order to quantify the amount of GAG retained in the gel, the digested samples were reacted with DMMB. The absorbance of the samples was then measured at 492 nm (Fluostar Galaxy BMG Labtechnology). The GAG concentrations were calculated from a standard curve constructed using known concentrations of CS-A. The amount of DNA in the gels was measured using the CyQUANT kit. The cells in the digested samples were firstly lysed and RNA degraded using the provided lysis buffer with RNase A (1.35 KU/ml) added for 1 hour at RT. GR-dye solution was then added to the samples, incubated at RT for 15 minutes then the fluorescence was measured (Fluostar Galaxy BMG Labtechnology). A standard curve was constructed using the DNA provided in the kit.

[11] = test system: human articular chondrocytes (HAC)
Experimental: (§3) Articular cartilage biopsies were harvested with ethics approval from a consenting patient. The cartilage was diced into 1 to 2 mm cubes and digested overnight at 37° C. with 0.15% w/v collagenase type II in basic chondrocyte media (DMEM high glucose media supplemented with 10% FCS, 10 mM HEPES, 0.2 mM L-ascorbic acid-2-phosphate, 0.4 mM L-proline and 1% PS). The resulting suspension was filtered through a 100-μm cell strainer (BD Biosciences) to exclude the undigested tissue and centrifuged at 700-g for 4 min. The isolated chondrocytes (HAC) were cultured in basic chondrocyte media and expanded at 37° C. in a humidified 5% CO2/95% air incubator.
(§4) HAC in culture flasks were trypsinised, suspended in basic chondrocyte media, and seeded in 48 well plates at a concentration of 50 HACs/mm^2. The cells were firstly allowed to attach to the surface for 4 hours, then exposed to either 30 mW/cm^2 of UV or visible light (15 minutes), with or without 0.05 wt % of 12959 or 0.2/2 Ru/SPS (mM) respectively. […] After 1 and 7 days, the cells were visualised and quantified using the live/dead assay. […]
(§5) The cells will stain green if alive and red if dead. After staining, the gels were washed with PBS for three times before imaging them using a fluorescence microscope (Zeiss axioimager Z1). The cells were quantified using the ImageJ software and the cell viability was calculated using the equation below:

[12] = test system: human articular chondrocytes (HAC); test: Photo-toxicity and radical toxicity evaluation, HAC on 2D surfaces; details: 7 days post treatment, light plus initiator
Experimental: as §3, §4, §5

[13] = read-out: IC50 Assembled construct

Fold change in IC50 Assembled construct/microspheres [3]: 16.33
Fold change in IC50 Assembled construct/monolayer [3]: 48.32
Fold change in IC50 Microspheres/monolayer [3]: 2.96
IC50 ([4]; read-out: IC50 2D): 50 nM
IC50 [4, 13]: 2410 nM
IC50 ([4]; read-out: IC50 Microspheres): 150 nM
SMILES: COc1cccc2c1C(=O)c1c(O)c3c(c(O)c1C2=O)C[C@@](O)(C(=O)CO)C[C@@H]3O[C@H]1C[C@H](N)[C@H](O)[C@H](C)O1 [doxorubicin, Doxorubicin]
Fold change in IC50 Assembled construct/microspheres [1]: 19.34
Fold change in IC50 Assembled construct/monolayer [1]: 70.14
Fold change in IC50 Microspheres/monolayer [1]: 3.63
IC50 ([2]; read-out: IC50 2D): 80 nM
IC50 [2, 13]: 5560 nM
IC50 ([2]; read-out: IC50 Microspheres): 290 nM
tissue present in cancer construct (darkfield images) ([5]; 1 μM drug): atrophy of the tissue
tissue present in cancer construct (darkfield images) ([5]; 10 μM drug): almost no tissue present
Fold change in IC50 Assembled construct/microspheres [6]: 21.41
Fold change in IC50 Assembled construct/monolayer [6]: 24.32
Fold change in IC50 Microspheres/monolayer [6]: 1.14
IC50 ([7]; read-out: IC50 2D): 160 nM
IC50 [7, 13]: 3810 nM
IC50 ([7]; read-out: IC50 Microspheres): 180 nM

SMILES: CC(C)(O)C(=O)c1ccc(OCCO)cc1 [UV+I2959, 1-[4-(2-hydroxyethoxy)-phenyl]-2-hydroxy-2-methyl-1-propane-1-one]
cell viability [8]: 50%
reduction of thickness (deformation of thickness) ([9]; 3 mW/cm^2, 0.05 wt % I2959 or 0.2/2 Ru/SPS (mM)): ~55%
deformation of thickness ([9]; 3 mW/cm^2, 0.5 wt % I2959 or 2/20 Ru/SPS (mM), controls without oxygen <10%): comparable to the controls
GAG/gel [10]: 0.1 µg/mg
number of cells attached [11]: 20 HACs/mm^2
cell morphology (live-dead stain) [12]: the cells became rounded
